Assay results published in patent US6495588B2, “Scytonemin and methods of using thereof” (The Regents of the University of California, priority 2000, dated 2002).

What was measured:
[1] = tested on: tissue myeloperoxidase activity; test: Myeloperoxidase (MPO) enzyme assay of mouse ear biopsies; type: in vivo; conditions: topical
From the text: To determine neutrophil influx into inflammed tissue region, the following assay may be conducted. Generally, myeloperoxidase (MPO), a neutrophil-specific marker released from primary granules, is indicative of the extravasation of pro-inflammation neutrophils from blood into the skin. Thus, to determine whether a test compound prevents, inhibits, modulates or attenuates inflammation related to an immunogenic inflammatory pathway or neutrophil influx, ear biopsies from treated and untreated mouse ears may be extracted and quantitated according to a modified method of Bradley, P.O., et al. (1982) J. Invest Dermatology 78:206-209, which is herein incorporated by reference. Specifically, ear bores from each treatment group from mouse ear edema assays from part A above were pooled and homogenized in 80 mM sodium phosphate buffer (pH 5.4) comprising 0.5% hexadecyltrimethylammonium bromide in a siliconized glass test tube for 1 minute at 0° C. using a Brinkman Polytron. The mixtures were centrifuged at 10,000×g at 4° C. for 30 minutes. 10 μl samples from each group were then assayed in a 96-well microtiter plate. The assay was initiated by adding 250 μl of o-dianisi-dine/phosphate reagent (0.28 mg of dianisidine added to 1 ml of 50 mM sodium phosphate comprising 0.0015 H2O2) to each well. After a 30 minute incubation at 37° C., the plates were read at 450 nm on a Molecular Devices microplate reader. Diluted control biopsies were utilized to develop a standard curve. Optical density values from drug-treated groups were compared to control groups to determine the % of control values of enzyme activity.

[2] = target: T1, rhPKCβ2 (Homo sapiens, UniProt P05771); test: PKC activity assay; type: biochemical; conditions: 0.01 μM ATP; read-out: IC50 rhPKC activity
T1 construct: made in house; host or cells: baculovirus expression system
Experimental: (§1) RhPKCβ2 was expressed in a baculovirus expression system. Kinase reactions were conducted in 50 μl comprising 0.5 μg rhPKC diluted in 2 mM Tris, and 100 μM EGTA and reaction buffer comprising substrate (0.9 mM EGTA, 1.1 mM CaCl2, 0.01 mg/ml glycogen synthase peptide (H-[…]OH) (Bachem, King of Prussia, Pa.), 40 μg/ml L-α-Phosphatidyl-L-serine, 1 μg/ml 1,3-Diolen, 10 mM MgCl2, pH 7.5). To assess PKA activity, kinase reactions were conducted in 50 μl comprising 0.5 μg PKA (from bovine heart supplied by Sigma, St. Louis, Mo.) diluted in 10 mM MOPS, pH 6.5 and reaction buffer comprising substrate (50 mM MOPS, pH 6.5, 10 mM MgCl2, 0.1 mg/ml Histone-IIA (Sigma, St. Louis, Mo.), 1 μM cAMP). An ATP solution (0.01 μM ATP and 0.5 μCi of [γ^33-P] ATP) was then added to the wells in both assay systems. Inhibitors were added at the indicated concentrations with a final DMSO concentration of 10%. Reactions were allowed to proceed for 20 minutes at 37° C. and were stopped with 25 mM EDTA. The reactions were spotted onto filter paper, washed four times in a beaker comprising 75 mM phosphoric acid and rinsed with acetone. Filters were dried and put in scintillation vials with fluid and counted.

[3] = tested on: RTX-induced mouse ear edema; test: Resiniferatoxin (RTX)-induced mouse ear edema assay; type: in vivo; conditions: systemic
Experimental: Various dilutions of test compounds were topically applied in acetone to the inside and outside surfaces of the left ears of mice in a solution comprising 0.1 μg RTX or 250 μg CAP per ear. A control, acetone, was applied to all right ears. After a 30 minute incubation, the mice were sacrificed, the ears removed, and bores taken and weighed.
For systemic studies, the test compounds were administered by intraperitoneal injection in a vehicle comprising 20% propylene glycol, 80% saline and 3 drops TWEEN-20 30 minutes or 1 hour prior to topical application of RTX or CAP. Control animals were injected with vehicle only. 0.1 μg RTX or 250 μg CAP was applied to the left ears and acetone was applied to the right ears. After 30 minutes of incubation, the mice were scarified, ears removed and bores taken and weighed.
Edema was measured by subtracting the weight of the right ear (control) from the weight of the left ear. The results were recorded as % decrease (inhibition) or % increase (potentiation) in edema relative to the control group edema.

[4] = tested on: LPS-stimulated monocytes; test: Proinflammatory mediator production in LPS-stimulated monocytes; type: cell-based
[5] = target: T2, PKA (Bos taurus, UniProt P00517); test: PKA activity assay; type: biochemical, bovine
T2 construct: 0.5 μg PKA (from bovine heart supplied by Sigma, St. Louis, Mo.); purchased Sigma, St. Louis, Mo; host or cells: bovine heart tissue
Experimental: as §1

[6] = target: T3, GST-Tie2 (Homo sapiens, UniProt Q02763); test: GST-Tie kinase activity assay; type: biochemical
T3 construct: Each reaction comprised 5 μg GST-Tie2 (intracellular kinase domain); made in house; host or cells: baculovirus (pAcG1 vector)
Experimental: To determine the effect of SCY on GST-Tie kinase activity, the following assay was conducted. Clones for the Tie2 receptor were obtained and submitted for confirmatory sequence analysis. Similar to the method described by Huang et al. (1995) Oncogene 11:2097-2103, which is herein incorporated by reference, GST fusion constructs using the human Tie kinase domains and the commercially available pAcG1 vector (Pharmigen, San Diego, Calif.) were constructed. […] The desired restriction fragment was recovered from a partial Tie2 cDNA clone and then subcloned directly into the EcoRI site of the commercially pAcG1 expression vector. These final constructs were transfected into the baculovirus and GST-Tie2 kinase was semipurified using a glutathione affinity column to greater than about 90% purity, as determined via SDS-PAGE analysis and Coomassie Blue staining.
The kinase assay is carried out in 96 well flashplates and in the same kinase buffer used in the PLK1 kinase assays. Each reaction comprised 5 μg GST-Tie2 (intracellular kinase domain), 1 μCi [^33P]-γATP, 30 μM cold ATP in 60 μl. Compounds were in DMSO to give a final concentration of 1% DMSO. The reaction was incubated for 2 hours at 30° C. and terminated by washing the plate five times with 10 μM cold ATP. Reactions were quantitated by using a Packard Top-Count.

T3 sequence (Q02763 824-1096 limits assumed): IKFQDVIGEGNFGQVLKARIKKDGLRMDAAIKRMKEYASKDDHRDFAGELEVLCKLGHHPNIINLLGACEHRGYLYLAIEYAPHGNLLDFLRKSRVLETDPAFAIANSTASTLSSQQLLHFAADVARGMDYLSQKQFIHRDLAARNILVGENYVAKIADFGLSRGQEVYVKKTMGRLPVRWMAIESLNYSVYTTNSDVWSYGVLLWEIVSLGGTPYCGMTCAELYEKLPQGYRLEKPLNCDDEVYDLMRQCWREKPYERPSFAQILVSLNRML
T1 sequence (P05771 1-673 isoform P05771-2): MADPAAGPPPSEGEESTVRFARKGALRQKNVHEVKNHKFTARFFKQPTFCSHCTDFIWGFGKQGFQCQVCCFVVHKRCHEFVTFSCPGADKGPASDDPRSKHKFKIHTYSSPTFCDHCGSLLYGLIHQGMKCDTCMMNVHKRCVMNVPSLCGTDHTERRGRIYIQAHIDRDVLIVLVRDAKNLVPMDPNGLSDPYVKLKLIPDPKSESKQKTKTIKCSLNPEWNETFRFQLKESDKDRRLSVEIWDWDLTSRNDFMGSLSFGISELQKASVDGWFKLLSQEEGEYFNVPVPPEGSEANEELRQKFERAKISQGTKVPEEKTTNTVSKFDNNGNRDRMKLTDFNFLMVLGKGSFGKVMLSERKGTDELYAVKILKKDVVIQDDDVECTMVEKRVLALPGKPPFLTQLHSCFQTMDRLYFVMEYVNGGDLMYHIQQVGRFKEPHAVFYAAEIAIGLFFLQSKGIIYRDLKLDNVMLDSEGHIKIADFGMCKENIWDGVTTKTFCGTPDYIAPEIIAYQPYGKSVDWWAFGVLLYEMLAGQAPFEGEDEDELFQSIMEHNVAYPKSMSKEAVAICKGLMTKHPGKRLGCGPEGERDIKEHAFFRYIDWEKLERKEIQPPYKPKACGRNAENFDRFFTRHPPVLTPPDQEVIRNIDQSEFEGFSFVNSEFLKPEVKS

## scytonemin
[1]; 1 μg scytonemin
  inhibition of MPO activity: about 19%
[1]; 5 μg scytonemin
  inhibition of MPO activity: ~18%
[1]; 10 μg scytonemin (fourth dose listed)
  inhibition of MPO activity: ~90%
[1]; 10 μg scytonemin (third dose listed)
  inhibition of MPO activity: ~68%
[2]
  IC50: ~3 µM
[3]; 25 mg/kg
  inhibition of topical RTX-induced mouse ear edema: 15%
[3]; 50 mg/kg
  inhibition of topical RTX-induced mouse ear edema: 18%
[3]; 150 mg/kg
  inhibition of topical RTX-induced mouse ear edema: 47%
[4]
  IL-1β production: reduces
  PGE2 production: reduces
  TNFα production: reduces
[5]
  IC50: > 10 µM
[5]; 0.01 μM ATP
  concentration at which PKA activity is significantly affected or inhibited: ≥ 10 µM
[6]
  IC50: > 10 µM
[6]; 30 μM cold ATP
  concentration at which GST-Tie2 activity is significantly affected or inhibited: ≥ 10 µM
